Test results from patent US4578400A, “Therapeutic composition and method for treatment of cardiovascular diseases” (priority 1982, dated 1986).

Tests used:
[1] = molecular target: T1, 3-hydroxy-3-methylglutaryl coenzyme A (HMG-Co A) reductase (Rattus norvegicus, UniProt P51639); assay: Inhibition of HMG-CoA reductase activity; assay type: biochemical, rat (liver microsome); settings: read-out: IC30 (amount necessary for inhibiting the enzymatic activity by 30%)
T1 sequence (P51639 1-887): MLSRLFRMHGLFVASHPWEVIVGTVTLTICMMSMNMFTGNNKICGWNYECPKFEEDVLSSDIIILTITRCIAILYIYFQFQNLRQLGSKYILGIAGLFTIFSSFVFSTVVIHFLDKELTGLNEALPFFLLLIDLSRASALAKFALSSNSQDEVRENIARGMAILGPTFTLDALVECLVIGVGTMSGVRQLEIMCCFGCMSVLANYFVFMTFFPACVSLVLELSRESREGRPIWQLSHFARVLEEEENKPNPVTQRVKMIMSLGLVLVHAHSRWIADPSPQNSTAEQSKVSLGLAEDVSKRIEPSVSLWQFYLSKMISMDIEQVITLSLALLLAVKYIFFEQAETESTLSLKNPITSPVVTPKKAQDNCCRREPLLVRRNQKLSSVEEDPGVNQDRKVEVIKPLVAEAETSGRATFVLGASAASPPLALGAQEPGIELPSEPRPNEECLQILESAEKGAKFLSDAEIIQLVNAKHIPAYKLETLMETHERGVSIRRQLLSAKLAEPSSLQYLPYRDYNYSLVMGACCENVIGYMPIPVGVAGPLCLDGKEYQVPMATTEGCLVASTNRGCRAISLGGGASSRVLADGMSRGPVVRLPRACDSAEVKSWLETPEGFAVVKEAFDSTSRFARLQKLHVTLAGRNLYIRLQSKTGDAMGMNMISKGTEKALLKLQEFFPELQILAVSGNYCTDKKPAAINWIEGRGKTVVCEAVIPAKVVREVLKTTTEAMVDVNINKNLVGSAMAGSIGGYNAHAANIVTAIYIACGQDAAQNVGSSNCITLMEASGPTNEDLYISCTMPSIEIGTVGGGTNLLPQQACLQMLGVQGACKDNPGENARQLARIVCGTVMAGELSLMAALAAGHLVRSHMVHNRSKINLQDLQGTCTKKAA
Description: Inhibition of the activity of 3-hydroxy-3-methylglutaryl coenzyme A (HMG-Co A) reductase

myocardial mitochondria = assay: Inhibition of the decrease in respiratory capacity of myocardial mitochondria; assay type: biochemical, male Wistar rats; settings: for ATP production rate: normal 515, defective 204, *P < 0.05
Protocol: Inhibition of the decrease in respiratory capacity of myocardial mitochondria
According to the method of Hagiwara (Biochem. Biophys. Acta, 46, 134-142, 1961), mitochondria fractions were prepared from the myocardium isolated from male Wistar rats weighing about 300 g. The respiratory capacity of the mitochondria was measured by polarography with an oxygen electrode (TA-100, Yanagimoto), with sodium glutamate and ADP being successively added to give final concentrations of 50 mM and 4 mM, respectively. Defective mitochondria were prepared by leaviang the mitochondria fractions at 0° C. for 24 hours, and 5--HDA--Na was added to determine its ability to inhibit the decrease in the respiratory capacity of the myocardial mitochondria, which is proportional to the rate of ATP production.

Structure (SMILES): CCCCCC(O)CCCC(=O)[O-].[Na+] (stereo not shown)
- IC30 [1]: 100 µM
- decrease in ATP production in defective mitochondria (in words) (myocardial mitochondria; defective mitochondria): significantly inhibited
- ATP production rate (myocardial mitochondria; defective mitochondria + 10^-4 M): 265 mM/mg-protein/min
- ATP production rate (myocardial mitochondria; defective mitochondria + 10^-5 M): 220 mM/mg-protein/min
